Data from US20010039287A1, “AROMATIC SULFONE HYDROXAMIC ACID METALLOPROTEASE INHIBITOR” (priority 1997, published 2001).
Structures can show the parent of a compound that is named as a salt. Where two headings read alike, the source gives them in different places.

Tests used:
Experiment in all cases: biochemical
recombinant human MMP-2 = target: T1, recombinant human MMP-2 (Homo sapiens, UniProt P08253)
T1 sequence (P08253 110-660): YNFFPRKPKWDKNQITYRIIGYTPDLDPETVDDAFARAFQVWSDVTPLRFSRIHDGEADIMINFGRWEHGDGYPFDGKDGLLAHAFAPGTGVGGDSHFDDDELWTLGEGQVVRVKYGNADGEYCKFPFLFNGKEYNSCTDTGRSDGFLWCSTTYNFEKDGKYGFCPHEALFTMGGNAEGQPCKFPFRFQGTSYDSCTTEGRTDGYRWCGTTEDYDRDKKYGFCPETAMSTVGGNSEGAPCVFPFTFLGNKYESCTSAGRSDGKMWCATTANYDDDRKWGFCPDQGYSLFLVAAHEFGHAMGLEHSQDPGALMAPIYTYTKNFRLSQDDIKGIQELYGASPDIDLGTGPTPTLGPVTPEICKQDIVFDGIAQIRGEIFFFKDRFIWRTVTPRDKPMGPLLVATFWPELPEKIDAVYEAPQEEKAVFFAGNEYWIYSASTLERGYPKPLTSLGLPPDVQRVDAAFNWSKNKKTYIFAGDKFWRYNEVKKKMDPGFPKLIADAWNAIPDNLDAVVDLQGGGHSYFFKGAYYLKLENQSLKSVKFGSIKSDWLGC

recombinant human MMP-9 = recombinant human MMP-9 (Homo sapiens, UniProt P14780); details: read-out: MMP-9 IC50
recombinant human MMP-13 = recombinant human MMP-13 (Homo sapiens, UniProt P45452); details: read-out: MMP-13 IC50
recombinant human MMP-1 = target: T2, recombinant human MMP-1 (Homo sapiens, UniProt P03956); details: read-out: MMP-1 IC50
T2 construct: made in house; host or cells: transfected HT-1080 cells (provided by Dr. Harold Welgus, Washington University)
T2 sequence (P03956 100-469): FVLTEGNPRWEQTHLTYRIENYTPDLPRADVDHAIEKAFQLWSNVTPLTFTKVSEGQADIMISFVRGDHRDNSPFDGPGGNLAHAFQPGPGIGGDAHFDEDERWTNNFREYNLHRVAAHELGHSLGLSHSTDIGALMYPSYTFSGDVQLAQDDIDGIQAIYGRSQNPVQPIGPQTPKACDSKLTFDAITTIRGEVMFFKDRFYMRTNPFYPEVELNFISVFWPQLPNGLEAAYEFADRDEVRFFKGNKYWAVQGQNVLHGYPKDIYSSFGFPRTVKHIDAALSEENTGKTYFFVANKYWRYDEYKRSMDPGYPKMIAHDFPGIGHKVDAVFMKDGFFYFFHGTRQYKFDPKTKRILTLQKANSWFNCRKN

[1] = Inhibition Table B, read-out: MMP-2 IC50
[2] = Inhibition Table A, read-out: MMP-2 IC50

recombinant human MMP-9, sequence (P14780 107-707 limits assumed): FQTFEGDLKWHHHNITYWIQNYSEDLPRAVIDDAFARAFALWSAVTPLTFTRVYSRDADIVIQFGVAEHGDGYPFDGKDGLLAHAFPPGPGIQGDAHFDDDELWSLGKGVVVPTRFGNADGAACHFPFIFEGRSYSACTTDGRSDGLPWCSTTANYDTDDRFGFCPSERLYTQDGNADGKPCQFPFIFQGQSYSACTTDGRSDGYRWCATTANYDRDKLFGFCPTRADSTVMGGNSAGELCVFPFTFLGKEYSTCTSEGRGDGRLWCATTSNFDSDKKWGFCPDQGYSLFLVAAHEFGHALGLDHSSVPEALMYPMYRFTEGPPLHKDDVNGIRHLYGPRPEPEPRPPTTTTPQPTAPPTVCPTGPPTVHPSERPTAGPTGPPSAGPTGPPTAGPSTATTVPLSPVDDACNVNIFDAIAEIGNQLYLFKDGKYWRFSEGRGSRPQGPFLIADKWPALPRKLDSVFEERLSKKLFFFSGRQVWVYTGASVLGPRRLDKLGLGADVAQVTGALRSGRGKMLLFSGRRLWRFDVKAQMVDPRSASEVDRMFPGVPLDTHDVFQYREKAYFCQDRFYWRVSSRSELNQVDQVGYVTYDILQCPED

Row | Compound | IC50 (recombinant human MMP-2; [1]) | IC50 (recombinant human MMP-9; Inhibition Table B) | IC50 (recombinant human MMP-13; Inhibition Table B) | IC50 (recombinant human MMP-1; Inhibition Table B) | IC50 (recombinant human MMP-2; [2]) | IC50 (recombinant human MMP-9; Inhibition Table A) | IC50 (recombinant human MMP-13; Inhibition Table A) | IC50 (recombinant human MMP-1; Inhibition Table A) | IC50 (recombinant human MMP-2; MMP-2 IC50 (nM))
1 | COCCN1CCC(C(=O)NO)(S(=O)(=O)c2ccc(Oc3ccccc3)cc2)CC1 [Example 30] | 0.1 nM | 0.3 nM | 0.1 nM | 350 nM |  |  |  |  | 
2 | O=C(NO)C1(S(=O)(=O)c2ccc(Oc3ccccc3)cc2)CCS(=O)(=O)CC1 [Example 110] | 0.4 nM | 10 nM | 0.5 nM | 2700 nM |  |  |  |  | 
3 | CC(=O)N1CCN(c2ccc(Oc3ccc(S(=O)(=O)C4(C(=O)NO)CCOCC4)cc3)cc2)CC1 [Example 123, 4-[[4-[4-(4-acetyl-1-piperazinyl)phenoxy]phenyl]sulfonyl]-tetrahydro-N-hydroxy-2H-pyran-4-carboxamide, Trifluoroacetic Acid Salt] | 1.8 nM | 27.8 nM | 1.8 nM | 3600 nM |  |  |  |  | 
4 | O=C(NO)C1(S(=O)(=O)c2ccc(Sc3ccncc3)cc2)CCSCC1 [Example 119, tetrahydro-N-hydroxy-4-[[4-(4-pyridinylthio)-phenyl]sulfonyl]-2H-thiopyran-4-carboxamide, Monohydrochloride] | 1.5 nM | 30 nM | 1.7 nM | > 10000 nM |  |  |  |  | 
5 | O=C(NO)C1(S(=O)(=O)c2ccc(Oc3cc(F)cc(F)c3)cc2)CCOCC1 [Example 70, 4-[[4-(3,5-difluorophenoxy)phenyl]sulfonyl]tetrahydro-N-hydroxy-2H-pyran-4-carboxamide] | 0.2 nM | 7.3 nM | 0.8 nM | 1500 nM |  |  |  |  | 
6 | O=C(O)CCc1ccc(Oc2ccc(S(=O)(=O)C3(C(=O)NO)CCOCC3)cc2)cc1 [Example 105, 4-[4-[[tetrahydro-4-[(hydroxyamino)carbonyl]-2H-pyran-4-yl]sulfonyl]phenoxy]benzenepropanoic Acid] | 3500 nM | 114 nM | 0.85 nM | > 10000 nM |  |  |  |  | 
7 | O=C(NO)C1(S(=O)(=O)c2ccc(Oc3ccc(-n4cncn4)cc3)cc2)CCOCC1 [Example 26] |  |  |  |  | 0.2 nM | 7 nM | 0.5 nM | 7700 nM | 
8 | O=C(NO)C1(S(=O)(=O)c2ccc(Oc3ccc(Cl)cc3)cc2)CCN(CCN2CCOCC2)CC1 [Example 89, 4-[[4-(4-chlorophenoxy)-phenyl]sulfonyl]-N-hydroxy-1-[2-(4-morpholinyl)ethyl]-4-piperidine-carboxamide, Dihydrochloride] | 0.15 nM | 0.4 nM | 0.25 nM | 1200 nM |  |  |  |  | 
9 | O=C(CS(=O)(=O)c1ccc(NC(=O)Nc2ccccc2)cc1)NO [Example 75, N—hydroxy-2-[[4-[[(phenylamino)carbonyl]amino]-phenyl]sulfonyl]acetamide] | 60 nM |  | 900 nM | > 10000 nM |  |  |  |  | 
10 | Cc1nc2cc(Oc3ccc(S(=O)(=O)C4(C(=O)NO)CCOCC4)cc3)ccc2s1 [Example 121, tetrahydro-N-hydroxy-4-[[4-[(2-methyl-5-benzothiazolyl)-oxy]phenyl]sulfonyl]-2H-pyran-4-carboxamide] | < 0.1 nM |  | 0.2 nM | 1200 nM |  |  |  |  | 
11 | O=C(NO)C1(S(=O)(=O)c2ccc(Oc3ccc(F)c(Cl)c3)cc2)CCOCC1 [Example 108, 4-[[4-(3-chloro-4-fluorophenoxy)phenyl]sulfonyl]-tetrahydro-N-hydroxy-2H-pyran-4-carboxamide] | 0.4 nM |  | 0.4 nM | 2000 nM |  |  |  |  | 
12 | C#CCN1CCC(C(=O)NO)(S(=O)(=O)c2ccc(SC3CCCC3)cc2)CC1 [Example 45, 4-[[4-(Cyclopentylthio)-phenyl]sulfonyl]-N-hydroxy-1-(2-propynyl)-4-piperidinecarboxamide, Monohydrochloride] | 2.5 nM |  | 1.7 nM | 8800 nM |  |  |  |  | 
13 | O=C(NO)C1(S(=O)(=O)c2ccc(Oc3ccc(I)cc3)cc2)CCOCC1 [Example 57, Tetrahydro-N-hydroxy-4-[[4-(4-iodophenoxy)phenyl]sulfonyl]-2H-pyran-4-carboxamide] | < 0.1 nM |  | 0.2 nM | 1200 nM |  |  |  |  | 
14 | O=C(NO)C1(S(=O)(=O)c2ccc(N3CCN(c4ccccc4)CC3)cc2)CCOCC1 [Example 20] |  |  |  |  |  |  | 1.7 nM | 10000 nM | 23.5 nM
15 | CC(C)(C)c1ccc(-c2ccc(S(=O)(=O)C3(C(=O)NO)CCOCC3)cc2)cc1 [Example 226] | 18.6 nM |  | 6 nM | > 10000 nM |  |  |  |  | 
16 | CC1(C)OCC(C(=O)NO)(S(=O)(=O)c2ccc(Oc3ccccc3)cc2)CO1 [Example 48] | 0.2 nM |  | 0.25 nM | 210 nM |  |  |  |  | 
17 | CC(=O)N1CCN(c2ccc(Oc3ccc(S(=O)(=O)C4(C(=O)NO)CCSCC4)cc3)cc2)CC1 [Example 112] | 7 nM |  | 3.2 nM | 1000 nM |  |  |  |  | 
18 | Cc1cccc(Oc2ccc(S(=O)(=O)C3(C(=O)NO)CCOCC3)cc2)n1 [Example 98, Tetrahydro-N-hydroxy-4-[[4-[(6-methyl-2—pyridinyl)oxy]phenyl]-sulfonyl]-2H-pyran-4-carboxamide] | 37 nM |  | 23.4 nM | > 10000 nM |  |  |  |  | 
19 | C#CCN1CCC(C(=O)NO)(S(=O)(=O)c2ccc(Oc3cccc(C)c3)cc2)CC1 [Example 41, N-hydroxy-4-[[4-(3-methylphenoxy)phenyl]sulfonyl]-1-(2-propynyl)-4-piperidinecarboxamide, Monohydrochloride] | 0.15 nM |  | 0.2 nM | 1200 nM |  |  |  |  | 
20 | O=C(NO)C1(S(=O)(=O)c2ccc(Oc3ccc(F)c(Cl)c3)cc2)CCNCC1 [Example 84, 4-[[4-(3-chloro-4-fluorophenoxy)phenyl]sulfonyl]-N-hydroxy-4-piperidine Carboxamide, Monohydrochloride] | 1.8 nM |  | 2.5 nM | 8000 nM |  |  |  |  | 
21 | O=C(NO)C1(S(=O)(=O)c2ccc(Oc3ccc(Cl)c(F)c3)cc2)CCOCC1 [Example 122, 4-[[4-(4-chloro-3-fluorophenoxy)phenyl]sulfonyl]-tetrahydro-N-hydroxy-2H-pyran-4-carboxamide] | 0.1 nM |  | 0.15 nM | 600 nM |  |  |  |  | 
22 | Nc1cccc(-c2ccc(S(=O)(=O)C3(C(=O)NO)CCOCC3)cc2)c1 [Example 232] | < 1 nM |  | < 1 nM | < 100 nM |  |  |  |  | 
23 | N,N-dimethyl-5-[4-[[tetrahydro-4-1[(hydroxyamino)-carbonyl]-2H-pyran-4-yl]sulfonyl]-phenoxy]-1H-indole-2-carboxamide, Trifluoroacetic Acid Salt [Example 124] | 0.5 nM |  | 1.1 nM | 1000 nM |  |  |  |  | 
24 | O=C(N1CCCCC1)N1CCN(c2ccc(S(=O)(=O)C3(C(=O)NO)CCOCC3)cc2)CC1 [Example 206] | > 10 nM |  | 20 nM | > 10000 nM |  |  |  |  | 
25 | Nc1cc(C(F)(F)F)ccc1Sc1ccc(S(=O)(=O)C2(C(=O)NO)CCOCC2)cc1 [Example 61, 4—[[4-[[2-amino-4-(trifluoromethyl)phenyl]thio]phenyl]-sulfonyl]-tetrahydro-N-hydroxy-2H-pyran-4-carboxamide, Monohydrochloride] | 1500 nM |  | 2000 nM | > 10000 nM |  |  |  |  | 
26 | O=C(NO)C1(S(=O)(=O)c2ccc(-c3ccccc3)cc2)CCOCC1 [Example 213] | < 1 nM |  | < 1 nM | 310 nM |  |  |  |  | 
27 | O=C(NO)C1(S(=O)(=O)c2ccc(SC3CCCCC3)cc2)CCNCC1 [Example 19] |  |  |  |  | 13.9 nM |  | 9 nM | > 10000 nM | 
